Assay results as given in BindingDB's records for doi:10.1007/pl00005133 (Eli Lilly, 1998).
Several values for one entry are separate records, joined by “and”; a condition that tells them apart may be missing. Identical values can stand only once.

Target: 5-hydroxytryptamine receptor 2B (Homo sapiens, UniProt P41595)
Sequence (P41595 whole entry): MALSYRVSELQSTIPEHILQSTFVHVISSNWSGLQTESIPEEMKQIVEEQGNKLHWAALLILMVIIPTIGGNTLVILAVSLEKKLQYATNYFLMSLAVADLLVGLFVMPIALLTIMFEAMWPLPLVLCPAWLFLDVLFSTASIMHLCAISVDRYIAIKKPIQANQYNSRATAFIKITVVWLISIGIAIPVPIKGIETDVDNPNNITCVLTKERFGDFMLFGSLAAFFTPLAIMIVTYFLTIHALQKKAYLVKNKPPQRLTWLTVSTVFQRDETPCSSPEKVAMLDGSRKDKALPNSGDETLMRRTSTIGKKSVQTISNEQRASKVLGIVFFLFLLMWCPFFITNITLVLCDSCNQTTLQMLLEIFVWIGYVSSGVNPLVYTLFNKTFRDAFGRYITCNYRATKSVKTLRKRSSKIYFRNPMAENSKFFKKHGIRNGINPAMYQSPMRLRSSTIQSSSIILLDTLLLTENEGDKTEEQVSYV

## Cc1nc2sccn2c(=O)c1CCN1CCC(=C(c2ccc(F)cc2)c2ccc(F)cc2)CC1
  Ki: 1.64 nM and 0.4 nM

## c1ccc2c(N3CCNCC3)cccc2c1
  Ki: 0.89 nM

## O=C1NCN(c2ccccc2)C12CCN(CC1COc3ccccc3O1)CC2 (stereo not drawn) [8-(2,3-Dihydro-benzo[1,4]dioxin-2-ylmethyl)-1-phenyl-1,3,8-triaza-spiro[4.5]decan-4-one]
  Ki: 475 nM and 173 nM

## O=C(CCCN1CCC2(CC1)C(=O)NCN2c1ccccc1)c1ccc(F)cc1 [8-[4-(4-fluorophenyl)-4-oxidanylidene-butyl]-1-phenyl-1,3,8-triazaspiro[4.5]decan-4-one]
  Ki: 592 nM and 317 nM

## CC(O)C(C)OC(=O)C1CC2c3cccc4c3c(cn4C(C)C)CC2N(C)C1 (stereo not drawn) [CAS_60634-51-7]
  Ki: 1.53 nM and 0.74 nM

## CCN(CC)C(=O)[C@@H]1C=C2c3cccc4[nH]c(Br)c(c34)C[C@H]2N(C)C1 [LSD,2-Bromo]
  Ki: 8.09 nM and 7.47 nM

## CN1C[C@@H](NS(=O)(=O)N(C)C)C[C@@H]2c3cccc4c3c(cn4C)C[C@H]21 [MESULERGINE]
  Ki: 3.3 nM and 1.92 nM

## CN(C)CCC(c1ccc(Cl)cc1)c1ccccn1 (stereo not drawn) [clorfeniramina]
  Ki: 6800 nM and 4170 nM
